Values of other authors, collected in patent US12616197B2, “Three-dimensional printing” (PERIDOT PRINT LLC, priority 2021, dated 2026).
≈ marks a conversion by molar mass, not a printed value. Read-outs that look alike come from different tables or passages of the source.

Row | solubility in water (water) | Molecule | further results
1 | 29 mg/mL (≈ 172 mM) | Cc1ncc(CO)c(CN)c1O [pyridoxamine] | –
2 | 1000 mg/80 mL | cyanocobalamin | –
3 | – | Cc1cc2nc3c(=O)[nH]c(=O)nc-3n(C[C@H](O)[C@H](O)[C@H](O)CO)c2cc1C [riboflavin] | solubility in water (water, depending on the crystal structure): 1000 mg/3,000-15,000 mL
4 | – | Cc1ncc(CO)c(CO)c1O.Cl [pyridoxine hydrochloride] | solubility in water: 200 mg/mL
